Data from article PMC6983213, “Combining Chalcones with Donepezil to Inhibit Both Cholinesterases and Aβ Fibril Assembly” (Molecules, 2019).
“Also recorded” adds a separate entry of the source. Read-outs that look alike come from different tables or passages of the source.

Tests used:
[1] = biological target: T1, N-biotinyl-Aβ(1–42) (bioAβ42) oligomer assembly (Homo sapiens, UniProt P05067); test: biochemical; details: for bioAβ42 oligomer assembly inhibition (in words): 1.56 to 50 μM, alone or in 1:1 / 1:1:1 mixtures; for EC50: concentration range 50 to 1.56 μM, duplicate, n = 3 independent experiments, ± SDEV
T1 construct: N-biotinyl Aβ(1–42) (bioAβ42) was purchased from Anaspec; purchased Anaspec (Fremont, CA, USA) AS-23523-05
T1 sequence (P05067 672-713): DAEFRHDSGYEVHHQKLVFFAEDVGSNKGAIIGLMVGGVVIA
Protocol: We first examined the effect of the synthesized 1,3- and 1,4-chalcone-donepezil hybrids 15a–15f and 16a–16f on the assembly of N-biotinyl-Aβ(1–42) (bioAβ42) monomers into oligomers. We quantified the assembly of bioAβ42 into soluble oligomers by using an ELISA assay in which the soluble oligomers were captured on NeutrAvidin^TM-coated ELISA plates and detected with streptavidin-horseradish peroxidase and colorimetric readout (Figure 3).
The plates were then stored in their blocked form at 4 °C prior to use for the oligomer assembly and dissociation assays.
The assembly of bioAβ42 into soluble oligomers was quantified with an ELISA assay in which the soluble oligomers were captured with the NeutrAvidin^TM coating the ELISA plates. The bound oligomers were detected with streptavidin-horseradish peroxidase (SA-HRP). […] Below, please find the details of the three steps (Steps 1–3) used for the oligomer assembly assay.
Step 1: Preparation of monomeric bioAβ42. For a low background, it was essential to rigorously pretreat the bioAβ42 peptide to convert (disaggregate) the multimeric species that form upon storage in the solid state, or even frozen in 1,1,1,3,3,3-hexafluoroisopropanol (HFIP) to monomers. The required amount of stock bioAβ42 peptide (0.5 mg dissolved at 1 mg/mL in HFIP) was pipetted into a polypropylene microfuge tube, dried to a thin film under a gentle air or N2 stream, and then disaggregated for 10 min at rt in neat trifluoroacetic acid (TFA). After removal of the TFA by drying with an air or N2 stream, DMSO was added to produce a 2.3 μg/mL (50×) stock solution.
Step 2: Assembly of bioAβ42 oligomers. 2 μL of disaggregated monomeric 50× bioAβ42 peptide in DMSO (prepared in Step 1) was pipetted into the bottom of each well of a polypropylene 96-well plate. […] The 96-well plate was sealed and incubated at rt for 30 min without shaking. The bioAβ42 oligomer assembly was stopped by adding 50 μL of 0.3% Tween 20 v/v in distilled H2O.
Step 3: Measurement of bioAβ42 oligomers. […] The 96-well plate was then sealed and incubated for 2 h while shaking at 150 rpm at rt. […] The plate was sealed and incubated for 1 h while shaking at 150 rpm at rt. The plate was washed as previously described, and 100 μL/well of HRP substrate (i.e., 1 mM:0.07 mM/tetramethylbenzidine:H2O2) in 0.2 M citrate buffer, pH 4.0 was added. The plate was incubated at rt for 5 to 10 min and the reaction was stopped by the addition of 100 μL/well of 1% v/v H2SO4. The absorbance of each well was read at 450 nm with a BioTek HT Synergy plate reader.
(§1) The effects of various chalcones, donepezil, donepezil analogue, and 1,3-chalcone-donepezil hybrids were tested for their ability to inhibit the bioAβ42 oligomer assembly and dissociation either alone or in combination with each other. The experiments were performed as described in the biotinyl-Aβ(1–42) (bioAβ42) oligomer assembly and dissociation assays section.

[2] = biological target: T2, preformed bioAβ42 oligomers (Homo sapiens, UniProt P05067); test: bioAβ42 oligomer dissociation assay (NeutrAvidin ELISA); type: biochemical; details: 0.01 to 50 μM; ~18 h; alone or in 1:1 / 1:1:1 mixtures
T2 construct: N-biotinyl Aβ(1–42) (bioAβ42) was purchased from Anaspec; purchased Anaspec (Fremont, CA, USA) AS-23523-05
T2 sequence (P05067 672-713): as above
Protocol: Dissociation of preformed oligomers of bioAβ42 was measured by pretreating biotinylated oligomers with solvent controls or compounds for a period of time, capturing them with NeutrAvidin^TM on ELISA plates, and detecting the remaining bound oligomers with SA-HRP [77] as described above. Below, please find the details of the two steps (Steps 1 and 2) used for the oligomer dissociation assay.
Step 1: Preformed bioAβ42 oligomers (sufficient for 400 wells). In total, 1 μg of bioAβ42 peptide (1 mg/mL dissolved in HFIP) was pipetted into 20 μL of HFIP in a polypropylene microfuge tube, and dried to a thin film under a gentle air or N2 stream. The film was dissolved in 250 μL of DMSO and vortexed. […] After incubation at rt for 1 h with intermittent vortexing, 0.375 mL of 100 mM Tween 20 (10% v/v) in distilled H2O was added to make the final Tween 20 concentration 0.3% v/v. The preformed oligomers were mixed by inversion and aliquoted for storage at −75 °C. Note: Multiple freeze-thaw cycles should be avoided.
Step 2: Oligomer dissociation assay. […] Then, 25 μL of the preformed bio42 oligomers adjusted to 0.6% v/v Tween 20 was pipetted into each well of a polypropylene 96-well plate. […] The plates were sealed and shaken at 150 rpm overnight at rt. After 18 h of incubation, the plates were centrifuged at 1000× g for 10 min and a 100-μL aliquot was transferred from each well into a well of an NA-coated ELISA plate that had been blocked with Tween 20. The oligomer content of that aliquot was measured as described for the bioAβ42 oligomer assembly assay.
as §1

[3] = biological target: EeAChE (AChE from Electrophorus electricus) (Electrophorus electricus, UniProt O42275); test: biochemical; details: for IC50: Ellman's method, pH 8.0, 25 °C, triplicate, ± SDEV, read-out: Inhibition (IC50) of EeAChE; for selectivity index (SI): based on IC50 values against EeAChE and EfBChE
Sequence of EeAChE (AChE from Electrophorus electricus) (O42275 24-633): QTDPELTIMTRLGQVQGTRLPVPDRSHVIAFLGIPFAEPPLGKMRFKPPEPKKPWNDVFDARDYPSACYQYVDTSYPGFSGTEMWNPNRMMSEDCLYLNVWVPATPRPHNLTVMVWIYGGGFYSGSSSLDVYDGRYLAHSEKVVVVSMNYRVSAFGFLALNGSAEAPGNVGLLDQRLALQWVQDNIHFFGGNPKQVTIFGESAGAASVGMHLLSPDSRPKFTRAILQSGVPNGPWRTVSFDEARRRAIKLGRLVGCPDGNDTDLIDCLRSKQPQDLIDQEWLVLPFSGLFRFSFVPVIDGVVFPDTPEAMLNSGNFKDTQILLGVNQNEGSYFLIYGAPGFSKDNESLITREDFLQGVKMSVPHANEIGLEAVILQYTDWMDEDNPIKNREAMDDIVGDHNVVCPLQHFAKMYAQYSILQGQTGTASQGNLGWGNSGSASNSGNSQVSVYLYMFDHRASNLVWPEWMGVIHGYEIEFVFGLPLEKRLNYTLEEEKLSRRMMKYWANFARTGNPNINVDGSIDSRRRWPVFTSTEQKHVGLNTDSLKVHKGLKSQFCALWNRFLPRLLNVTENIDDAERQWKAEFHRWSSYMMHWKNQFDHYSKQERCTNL
Protocol: (§2) The ChE inhibition assays were performed as previously described. The 1,3- and 1,4-chalcone-donepezil hybrids (0.1 nM to 100 μM) were dissolved in sodium phosphate buffer ((100 μL), 0.1 M, pH 8.0). […] All assays were performed in triplicate. The data was plotted as a sigmoidal curve and IC50 values were calculated using SigmaPlot 14.0 (Systat Software, San Jose, CA, USA).

[4] = biological target: EfBChE (BChE from Equus ferus) (Equus caballus, UniProt P81908); test: biochemical; type: biochemical; details: for IC50: Ellman's method, pH 8.0, 25 °C, triplicate, ± SDEV, read-out: Inhibition (IC50) of EfBChE; for inhibition of EfBChE better than that of EeAChE: from IC50 values
Sequence of EfBChE (BChE from Equus ferus) (P81908 whole entry): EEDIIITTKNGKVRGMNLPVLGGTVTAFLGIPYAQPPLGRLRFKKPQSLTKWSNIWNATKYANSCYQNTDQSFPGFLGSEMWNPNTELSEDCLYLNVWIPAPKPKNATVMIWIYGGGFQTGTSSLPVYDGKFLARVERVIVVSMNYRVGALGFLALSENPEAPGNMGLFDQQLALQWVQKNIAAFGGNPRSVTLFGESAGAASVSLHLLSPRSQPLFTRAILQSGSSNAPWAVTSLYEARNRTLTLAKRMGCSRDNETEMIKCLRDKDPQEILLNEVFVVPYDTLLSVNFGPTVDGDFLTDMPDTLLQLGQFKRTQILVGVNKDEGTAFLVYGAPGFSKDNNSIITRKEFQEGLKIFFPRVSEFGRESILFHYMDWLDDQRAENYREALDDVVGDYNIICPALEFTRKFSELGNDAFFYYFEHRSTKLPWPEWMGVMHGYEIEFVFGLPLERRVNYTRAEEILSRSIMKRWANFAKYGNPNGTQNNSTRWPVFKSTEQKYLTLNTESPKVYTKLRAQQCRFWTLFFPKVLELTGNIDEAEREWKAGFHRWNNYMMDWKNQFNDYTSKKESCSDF
Protocol: as §2

F40 = Aβ(1–40) fibrils = biological target: T3, F40 = Aβ(1–40) fibrils (Homo sapiens, UniProt P05067); test: 3H-PIB binding competition/titration, Aβ(1–40) fibrils; details: compounds at 10 μM (titration 10 to 0.03 μM); 1.2 nM 3H-PIB
T3 construct: lyophilized NH4OH-treated Aβ(1–40) (cat # A-1157-02); purchased rPeptide (Watkinsville, GA, USA) A-1157-02
T3 sequence (P05067 672-711): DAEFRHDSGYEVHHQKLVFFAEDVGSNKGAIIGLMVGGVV
Protocol: (§3) Prior to being transferred to screw-top polypropylene vials and being stored at −75 °C, these 1 mg/mL fibril suspensions were further diluted with an equal volume of the buffer solution.
(§4) The plates were sealed and incubated for 3 h at 22 °C, without shaking, and transferred to a 96-well Millipore Multiscreen HTS Hi Flow FB (GF/B) filter plate, and filtered with a multi-well plate vacuum manifold (Millipore Corporation, Bedford, MA, USA). […] Specific binding of ^3H-PIB was determined by subtracting the non-specific binding determined in the presence of 1 μM BTA-1.
(§5) The titration of compounds with ^3H-PIB bound to Aβ(1–40) and Aβ(1–42) fibrils and AD brain extract (ADPBC) were performed to further determine the competition of our compounds for the ^3H-PIB binding site of the AD brain. The experiments were performed as described in the ^3H-PIB binding assays of Section 3.4.3 with the use of a concentration range of 10 to 0.03 μM for the compounds tested.

F42 = Aβ(1–42) fibrils = biological target: T4, F42 = Aβ(1–42) fibrils (Homo sapiens, UniProt P05067); test: 3H-PIB binding competition/titration, Aβ(1–42) fibrils; details: compounds at 10 μM (titration 10 to 0.03 μM); 1.2 nM 3H-PIB
T4 construct: Aβ(1–42) (cat # A-1167-02) purchased from rPeptide; purchased rPeptide (Watkinsville, GA, USA) A-1167-02
T4 sequence (P05067 672-713): as the sequence (P05067 672-713) above
Protocol: as §3, §4, §5

[5] = test system: ADPBC (Alzheimer's disease PIB binding complex); test: 3H-PIB binding competition/titration, ADPBC; design: species or system Human; details: compounds at 10 μM (titration 10 to 0.03 μM); 1.2 nM 3H-PIB
Protocol: Human AD brain frontal cortical tissue (from the Sanders-Brown Center on Aging Alzheimer’s Disease Center Brain Bank at the University of Kentucky) was processed as follows.
as §4, §5

[6] = read-out: EC50 against bioAβ42 oligomer assembly

With `CN(C)c1ccc(/C=C/C(=O)c2cccc(O)c2)cc1` [compound 3, (E)-3-(4-(Dimethylamino)Phenyl)-1-(3-Hydroxyphenyl)Prop-2-En-1-One] the “bioAβ42 oligomer assembly inhibition (in words)” value [1] was “did not inhibit bioAβ42 assembly”, the EC50 [1, 6] was over 50 µM and the “dissociation of preformed bioAβ42 oligomers (in words)” value (“dissociation” below) [2] was “did not dissociate the preformed oligomers”.

With `CN(C)c1ccc(/C=C/C(=O)c2cccc(OCCO)c2)cc1` [compound 17, (E)-3-(4-(Dimethylamino)Phenyl)-1-(3-(2-Hydroxyethoxy)Phenyl)Prop-2-En-1-One] the “bioAβ42 oligomer assembly inhibition (in words)” value [1] was “did not inhibit bioAβ42 assembly” and the “dissociation” value [2] was “did not dissociate the preformed oligomers”.

`COc1cc2c(cc1OCCCCOc1cccc(C(=O)/C=C/c3ccc(N(C)C)cc3)c1)C(=O)C(CC1CCN(Cc3ccccc3)CC1)C2` (stereo not shown) [15b, (E)-2-((1-Benzylpiperidin-4-Yl)Methyl)-6-(4-(3-(3-(4-(Dimethylamino)Phenyl)Acryloyl)Phenoxy)Butoxy)-5-Methoxy-2,3-Dihydro-1H-Inden-1-One] was tested, and the IC50 [3] was 0.65 ± 0.14 µM, the “selectivity index (SI)” value [3] was 0.05 and the IC50 [4] was 0.03 ± 0.01 µM. For the same molecule, the “inhibition of EfBChE better than that of EeAChE” value [4] was 22 fold, the “displacement of 3H-PIB from F40 (in words)” value (F40 = Aβ(1–40) fibrils) was “better binding to F40, F42, and ADPBC than 15c, 15d, 15e, and 15f” and the “displacement of 3H-PIB from F42 (in words)” value (F42 = Aβ(1–42) fibrils) was “better binding to F40, F42, and ADPBC than 15c, 15d, 15e, and 15f”. For the same molecule, the “displacement of 3H-PIB from ADPBC (in words)” value [5] was “better binding to F40, F42, and ADPBC than 15c, 15d, 15e, and 15f”, the “bioAβ42 oligomer assembly inhibition (in words)” value [1] was “better inhibition of bioAβ42 oligomer assembly” and the EC50 [1, 6] was 4.1 ± 0.17 µM.

With `COc1cc2c(cc1OCCOc1cccc(C(=O)/C=C/c3ccc(N(C)C)cc3)c1)C(=O)C(CC1CCN(Cc3ccccc3)CC1)C2` (stereo not shown) [15a, (E)-2-((1-Benzylpiperidin-4-Yl)Methyl)-6-(2-(3-(3-(4-(Dimethylamino)Phenyl)Acryloyl)Phenoxy)Ethoxy)-5-Methoxy-2,3-Dihydro-1H-Inden-1-One] the IC50 [3] was 1.02 ± 0.33 µM, the “selectivity index (SI)” value [3] was 0.02 and the IC50 [4] was 0.02 ± 0.002 µM. The “inhibition of EfBChE better than that of EeAChE” value [4] was 51 fold, the “displacement of 3H-PIB from F40 (in words)” value (F40 = Aβ(1–40) fibrils) was “better binding to F40, F42, and ADPBC than 15c, 15d, 15e, and 15f” and the “displacement of 3H-PIB from F42 (in words)” value (F42 = Aβ(1–42) fibrils) was “better binding to F40, F42, and ADPBC than 15c, 15d, 15e, and 15f”. The “displacement of 3H-PIB from ADPBC (in words)” value [5] was “better binding to F40, F42, and ADPBC than 15c, 15d, 15e, and 15f”, the “bioAβ42 oligomer assembly inhibition (in words)” value [1] was “successful in preventing the self-assembly of bioAβ42; also recorded: better inhibition of bioAβ42 oligomer assembly” and the EC50 ([1]; EC50 against bioAβ42 oligomer assembly) was 4.83 ± 0.47 µM.

In the case of `COc1cc2c(cc1OCCO)C(=O)C(CC1CCN(Cc3ccccc3)CC1)C2` (stereo not shown) [compound 20, 2-((1-Benzylpiperidin-4-Yl)Methyl)-6-(2-Hydroxyethoxy)-5-Methoxy-2,3-Dihydro-1H-Inden-1-One], the “bioAβ42 oligomer assembly inhibition (in words)” value [1] is reported as “did not inhibit bioAβ42 assembly” and the “dissociation” value [2] is reported as “did not dissociate the preformed oligomers”.
